Values quoted from earlier work as cited in US9770423B2, “Modulation sAPP, sAAPα and BDNF levels in individuals diagnosed with FXS and ASD” (Indiana University Research and Technology Corp., priority 2012, dated 2017).

Tested on: adult males with FXS
Details: of 3 adult males with FXS, cited from earlier work

Structure (SMILES): CC(=O)NCCCS(=O)(=O)O.[Ca] [acamprosate, Calcium Acetylhomotaurine]
- subjects with non-treatment limiting gastrointestinal distress (emesis and/or nausea): Two subjects
- subjects with significant positive clinical response as measured by the CGI-I (mean dose 1,221 mg/day, mean duration 21.3 weeks): 3
